The numbers were not newly measured in patent US12138268B2, “Treatment of erectile dysfunction and other indications” (Strategic Science & Technologies, LLC, priority 2009, dated 2024), which cites them from elsewhere.

As a reminder, the pKa is the negative logarithm of the acid dissociation constant.

With `CCCOc1ccc(S(=O)(=O)N2CCN(CCO)CC2)cc1-c1nc2c(CCC)cn(CC)c2c(=O)[nH]1` [mirodenafil], the pKa is given as 6.0.
